Test results: US20070049564A1 (Wyeth, priority 2005, published 2007)
Converted amounts (≈) assume the structure as drawn. Like-named read-outs stand apart in the source and are kept apart here.

Legend:
E. coli GC 2236 = assay: MIC, broth microdilution; conditions: Escherichia coli
Protocol: (§1) Antimicrobial susceptibility testing. The in vitro activities of the antibiotics are determined by the broth microdilution method as recommended by the National Committee for Clinical Laboratory Standards (NCCLS) (1). Mueller-Hinton II broth (MHBII)(BBL Cockeysville, Md.) is the medium employed in the testing procedures. Microtiter plates containing serial dilutions of each antimicrobial agent are inoculated with each organism to yield the appropriate density (10^5 CFU/ml) in a 100 μl final volume. The plates are incubated for 18-22 hours at 35° C. in ambient air. […] Standard Pharmacological Test Procedures
(§2) Presented in Tables I-XIII are representative compounds of Formula I which were evaluated against a panel of 40 selected gram-positive and gram-negative bacteria strains by pre-incubation in water, mouse serum or human serum. Representative compounds were first incubated in mouse serum for an hour prior to the in vitro testing against a panel of selected gram-positive and gram-negative bacteria strains. All compounds were also pre-incubated in water for an hour prior to testing as control. Representative compounds of Formula I were incubated in human serum prior to MIC determination.

E. coli GC 2231 = assay: MIC, broth microdilution; conditions: Escherichia coli
E. coli GC 2232 = assay: MIC, broth microdilution; conditions: Escherichia coli
E. coli GC 2272 = assay: MIC, broth microdilution; conditions: Escherichia coli
P. aeruginosa GC 2214 = assay: MIC, broth microdilution; conditions: Pseudomonas aeruginosa
S. aureus GC 1131 = assay: MIC, broth microdilution; conditions: Staphylococcus aureus
S. aureus GC 4536 = assay: MIC, broth microdilution; conditions: Staphylococcus aureus
S. aureus GC 2216 = assay: MIC, broth microdilution; conditions: Staphylococcus aureus
Protocol: as §1, §2

S. epidermidis GC 4935 = assay: MIC, broth microdilution; conditions: Staphylococcus epidermidis
E. faecalis GC 4555 = assay: MIC, broth microdilution; conditions: Enterococcus faecalis
E. faecalis GC 2265 = assay: MIC, broth microdilution; conditions: Enterococcus faecalis
E. faecalis GC 2267 = assay: MIC, broth microdilution; conditions: Enterococcus faecalis
E. faecalis GC 2242 = assay: MIC, broth microdilution; conditions: Enterococcus faecalis
E. faecium GC 2243 = assay: MIC, broth microdilution; conditions: Enterococcus faecium
S. pneumoniae* GC 4465 = assay: MIC, broth microdilution; conditions: Streptococcus pneumoniae
S. pneumoniae+ GC 4465 = assay: MIC, broth microdilution; conditions: Streptococcus pneumoniae
c. albicans GC 3066 = assay: MIC, broth microdilution
E. coli = assay: Range of MIC for E. coli strains; conditions: Escherichia coli
Staph. = assay: Range of MIC for Staph. strains, including MRSA; conditions: Staphylococcus aureus, MRSA
Staph. aureus Smith = assay: In vivo activity (oral, iv; ED50) against Staph. aureus Smith in mice
Protocol: Representative examples of compounds of Formula I were tested for the oral efficacy using S. aureus Smith in mice.

[1] = read-out: MINIMAL INHIBITORY CONCENTRATION MIC, pre-incubated in Mouse Serum
[2] = read-out: MINIMAL INHIBITORY CONCENTRATION MIC, pre-incubated in Water

CCCN(CC(=O)Nc1cc(N(C)C)c2c(c1O)C(=O)C1=C(O)[C@]3(O)C(=O)C(C(N)=O)=C(O)[C@@H](N(C)C)[C@@H]3C[C@@H]1C2)C(=O)OCOC(=O)c1ccc(C(C)(C)C)cc1 [Example 28, ({[(2-{[(5aR,6aS,7S,10aS)-9-(aminocarbonyl)-4,7-bis(dimethylamino)-1,8,10a,11-tetrahydroxy-10,12-dioxo-5,5a,6,6a,7,10,10a,12-octahydrotetracen-2-yl]amino}-2-oxoethyl)(propyl)amino]carbonyl}oxy)methyl 4-tert-butylbenzoate] showed an MIC (E. coli GC 2236; GC2236, read-out: MINIMAL INHIBITORY CONCENTRATION MIC, pre-incubated in Mouse Serum) of 0.5 µg/mL (≈ 0.62 µM), an MIC (E. coli GC 2236; GC2236, read-out: MINIMAL INHIBITORY CONCENTRATION MIC, pre-incubated in Water) of over 64 µg/mL and an MIC (E. coli GC 2231; GC2231, read-out: MINIMAL INHIBITORY CONCENTRATION MIC, pre-incubated in Mouse Serum) of 1 µg/mL (≈ 1.24 µM). For the same compound, the MIC (E. coli GC 2231; GC2231, read-out: MINIMAL INHIBITORY CONCENTRATION MIC, pre-incubated in Water) was over 64 µg/mL, the MIC (E. coli GC 2232; GC2232, read-out: MINIMAL INHIBITORY CONCENTRATION MIC, pre-incubated in Mouse Serum) was 0.5 µg/mL (≈ 0.62 µM) and the MIC (E. coli GC 2232; GC2232, read-out: MINIMAL INHIBITORY CONCENTRATION MIC, pre-incubated in Water) was over 64 µg/mL. For the same compound, the MIC (E. coli GC 2272; GC2272, read-out: MINIMAL INHIBITORY CONCENTRATION MIC, pre-incubated in Mouse Serum) was 0.5 µg/mL (≈ 0.62 µM), the MIC (E. coli GC 2272; GC2272, read-out: MINIMAL INHIBITORY CONCENTRATION MIC, pre-incubated in Water) was over 64 µg/mL and the MIC (P. aeruginosa GC 2214; GC2214, read-out: MINIMAL INHIBITORY CONCENTRATION MIC, pre-incubated in Mouse Serum) was 16 µg/mL (≈ 19.9 µM). It also gave an MIC (P. aeruginosa GC 2214; GC2214, read-out: MINIMAL INHIBITORY CONCENTRATION MIC, pre-incubated in Water) of over 64 µg/mL, an MIC (S. aureus GC 1131; GC1131, read-out: MINIMAL INHIBITORY CONCENTRATION MIC, pre-incubated in Mouse Serum) of 0.5 µg/mL (≈ 0.62 µM) and an MIC (S. aureus GC 1131; GC1131, read-out: MINIMAL INHIBITORY CONCENTRATION MIC, pre-incubated in Water) of 32 µg/mL (≈ 39.7 µM). The MIC (S. aureus GC 4536; GC4536, read-out: MINIMAL INHIBITORY CONCENTRATION MIC, pre-incubated in Mouse Serum) was 0.5 µg/mL (≈ 0.62 µM), the MIC (S. aureus GC 4536; GC4536, read-out: MINIMAL INHIBITORY CONCENTRATION MIC, pre-incubated in Water) was 32 µg/mL (≈ 39.7 µM) and the MIC (S. aureus GC 2216; GC2216, read-out: MINIMAL INHIBITORY CONCENTRATION MIC, pre-incubated in Mouse Serum) was 0.5 µg/mL (≈ 0.62 µM). For the same compound, the MIC (S. aureus GC 2216; GC2216, read-out: MINIMAL INHIBITORY CONCENTRATION MIC, pre-incubated in Water) was 32 µg/mL (≈ 39.7 µM), the MIC (S. epidermidis GC 4935; GC4935, read-out: MINIMAL INHIBITORY CONCENTRATION MIC, pre-incubated in Mouse Serum) was 1 µg/mL (≈ 1.24 µM) and the MIC (S. epidermidis GC 4935; GC4935, read-out: MINIMAL INHIBITORY CONCENTRATION MIC, pre-incubated in Water) was 32 µg/mL (≈ 39.7 µM). The MIC (E. faecalis GC 4555; GC4555, read-out: MINIMAL INHIBITORY CONCENTRATION MIC, pre-incubated in Mouse Serum) was 0.25 µg/mL (≈ 0.31 µM), the MIC (E. faecalis GC 4555; GC4555, read-out: MINIMAL INHIBITORY CONCENTRATION MIC, pre-incubated in Water) was 64 µg/mL (≈ 79.4 µM) and the MIC (E. faecalis GC 2265; GC2265, read-out: MINIMAL INHIBITORY CONCENTRATION MIC, pre-incubated in Mouse Serum) was 2 µg/mL (≈ 2.48 µM). It also gave an MIC (E. faecalis GC 2265; GC2265, read-out: MINIMAL INHIBITORY CONCENTRATION MIC, pre-incubated in Water) of 64 µg/mL (≈ 79.4 µM), an MIC (E. faecalis GC 2267; GC2267, read-out: MINIMAL INHIBITORY CONCENTRATION MIC, pre-incubated in Mouse Serum) of 2 µg/mL (≈ 2.48 µM) and an MIC (E. faecalis GC 2267; GC2267, read-out: MINIMAL INHIBITORY CONCENTRATION MIC, pre-incubated in Water) of 64 µg/mL (≈ 79.4 µM). For the same compound, the MIC (E. faecalis GC 2242; GC2242, read-out: MINIMAL INHIBITORY CONCENTRATION MIC, pre-incubated in Mouse Serum) was 0.5 µg/mL (≈ 0.62 µM), the MIC (E. faecalis GC 2242; GC2242, read-out: MINIMAL INHIBITORY CONCENTRATION MIC, pre-incubated in Water) was 4 µg/mL (≈ 4.96 µM) and the MIC (E. faecium GC 2243; GC2243, read-out: MINIMAL INHIBITORY CONCENTRATION MIC, pre-incubated in Mouse Serum) was 0.25 µg/mL (≈ 0.31 µM). The MIC (E. faecium GC 2243; GC2243, read-out: MINIMAL INHIBITORY CONCENTRATION MIC, pre-incubated in Water) was 0.25 µg/mL (≈ 0.31 µM), the MIC (S. pneumoniae* GC 4465; [1]) was under 0.06 µg/mL and the MIC (S. pneumoniae* GC 4465; [2]) was under 0.06 µg/mL. For the same compound, the MIC (S. pneumoniae+ GC 4465; [1]) was 2 µg/mL (≈ 2.48 µM), the MIC (S. pneumoniae+ GC 4465; [2]) was 0.5 µg/mL (≈ 0.62 µM) and the MIC (c. albicans GC 3066; Candida albicans, GC3066, read-out: MINIMAL INHIBITORY CONCENTRATION MIC) was over 64 µg/mL. For the same compound, the “MINIMAL INHIBITORY CONCENTRATION MIC” value (c. albicans GC 3066; pre-incubated in Water) was over 64 UG/ML, the MIC (E. coli; 20 h, read-out: Range of MIC, E. coli (Mouse Serum)) was 0.25 to 1 µg/mL (≈ 0.31 to 1.24 µM) and the MIC (E. coli; read-out: Range of MIC, E. coli (Water)) was over 64 µg/mL. The MIC (E. coli; read-out: Range of MIC, E. coli (mouse serum)) was 0.25 to 1 µg/mL (≈ 0.31 to 1.24 µM), the MIC (E. coli; read-out: Range of MIC, E. coli (water)) was over 64 µg/mL and the MIC (Staph.; read-out: Range of MIC, Staph (Mouse Serum)) was 0.5 to 4 µg/mL (≈ 0.62 to 4.96 µM). For the same compound, the MIC (Staph.; read-out: Range of MIC, Staph (Water)) was 4 to 64 µg/mL (≈ 4.96 to 79.4 µM), the MIC (Staph.; read-out: Range of MIC, Staph. (mouse serum)) was 0.5 to 4 µg/mL (≈ 0.62 to 4.96 µM) and the MIC (Staph.; read-out: Range of MIC, Staph. (water)) was 4 to 64 µg/mL (≈ 4.96 to 79.4 µM). It also gave an ED50 (Staph. aureus Smith; Staphylococcus aureus, in Mus musculus, iv, read-out: ED50 SIV (Staph aureus Smith)) of 0.6 mg/kg, an ED50 (Staph. aureus Smith; Staphylococcus aureus, in Mus musculus, po, read-out: ED50 SOD (Staph aureus Smith)) of 6.61 mg/kg and an ED50 (Staph. aureus Smith; Staphylococcus aureus, in Mus musculus, po, read-out: ED50 Staph Smith SOD) of 6.61 mg/kg. It also gave an ED50 (Staph. aureus Smith; iv, read-out: ED50 Staph Smith SIV) of 0.6 mg/kg.
